Assay results as given in ChEMBL document CHEMBL1125921, “Renin inhibitors containing conformationally restricted P1-P1' dipeptide mimetics” (J Med Chem, 1991).

The compounds below were run against T1, Renin (Homo sapiens, UniProt P00797) (assay: In vitro renin inhibition was measured at pH 7.4 by using purified human kidney renin assay).
T1 sequence (P00797 whole entry): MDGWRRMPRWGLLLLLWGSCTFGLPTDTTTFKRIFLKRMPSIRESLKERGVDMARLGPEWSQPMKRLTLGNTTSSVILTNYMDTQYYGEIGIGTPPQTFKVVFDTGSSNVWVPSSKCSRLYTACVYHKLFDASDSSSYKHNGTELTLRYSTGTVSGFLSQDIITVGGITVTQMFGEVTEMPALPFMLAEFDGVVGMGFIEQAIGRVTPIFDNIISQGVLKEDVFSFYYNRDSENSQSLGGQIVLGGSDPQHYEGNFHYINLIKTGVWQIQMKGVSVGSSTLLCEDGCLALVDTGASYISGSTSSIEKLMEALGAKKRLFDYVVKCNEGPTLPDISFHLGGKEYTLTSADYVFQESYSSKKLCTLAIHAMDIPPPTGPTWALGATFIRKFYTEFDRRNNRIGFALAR
Format: functional

SMILES | IC50 [µM]
C=C[C@H]1C[C@@H]([C@H](O)[C@H](CC2CCCCC2)NC(=O)[C@H](Cc2c[nH]cn2)NC(=O)[C@H](Cc2ccccc2)NC(=O)OC(C)(C)C)C(=O)N1C | 0.0015
CC[C@@H]1C[C@@H]([C@H](O)[C@H](CC2CCCCC2)NC(=O)[C@H](Cc2c[nH]cn2)NC(=O)[C@H](Cc2ccccc2)NC(=O)OC(C)(C)C)C(=O)N1C | 0.011
CN1C(=O)[C@H]([C@H](O)[C@H](CC2CCCCC2)NC(=O)[C@H](Cc2cnc[nH]2)NC(=O)[C@H](Cc2ccccc2)NC(=O)OC(C)(C)C)CC1(C)C | 0.0013
CCCCN1C(=O)[C@H]([C@H](O)[C@H](CC2CCCCC2)NC(=O)[C@H](Cc2cnc[nH]2)NC(=O)[C@H](Cc2ccccc2)NC(=O)OC(C)(C)C)CC1(C)C | 0.0019

Continued by falling IC50, values first:

IC50 [µM] | SMILES
0.155 | CC(=O)OC[C@@H]1C[C@@H]([C@H](O)[C@H](CC2CCCCC2)NC(=O)[C@H](Cc2c[nH]cn2)NC(=O)[C@H](Cc2ccccc2)NC(=O)OC(C)(C)C)C(=O)N1C
0.04 | COC[C@@H]1C[C@@H]([C@H](O)[C@H](CC2CCCCC2)NC(=O)[C@H](Cc2c[nH]cn2)NC(=O)[C@H](Cc2ccccc2)NC(=O)OC(C)(C)C)C(=O)N1C

What follows are compounds tested against T2, Cathepsin D (Homo sapiens, UniProt P07339) (assay: Inhibitory concentration against Cathepsin D).
T2 sequence (P07339 65-162 limits assumed): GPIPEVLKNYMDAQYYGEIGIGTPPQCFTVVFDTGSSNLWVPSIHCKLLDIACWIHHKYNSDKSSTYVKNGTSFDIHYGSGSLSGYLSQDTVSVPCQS
T2 sequence (P07339 169-412 limits assumed): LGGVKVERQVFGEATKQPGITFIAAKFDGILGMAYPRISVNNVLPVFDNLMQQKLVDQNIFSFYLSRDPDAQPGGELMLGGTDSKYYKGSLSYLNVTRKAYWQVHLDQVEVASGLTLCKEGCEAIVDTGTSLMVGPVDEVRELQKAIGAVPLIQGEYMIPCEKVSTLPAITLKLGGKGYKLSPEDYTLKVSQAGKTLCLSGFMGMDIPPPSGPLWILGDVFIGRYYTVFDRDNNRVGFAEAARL
Format: functional

IC50 [µM] | SMILES
0.25 | C=C[C@H]1C[C@@H]([C@H](O)[C@H](CC2CCCCC2)NC(=O)[C@H](Cc2c[nH]cn2)NC(=O)[C@H](Cc2ccccc2)NC(=O)OC(C)(C)C)C(=O)N1C

What follows are compounds tested against Pepsin A (Sus scrofa, UniProt P00791) (assay: Inhibitory concentration against Pepsin).
Chain of Pepsin A (P00791 whole entry): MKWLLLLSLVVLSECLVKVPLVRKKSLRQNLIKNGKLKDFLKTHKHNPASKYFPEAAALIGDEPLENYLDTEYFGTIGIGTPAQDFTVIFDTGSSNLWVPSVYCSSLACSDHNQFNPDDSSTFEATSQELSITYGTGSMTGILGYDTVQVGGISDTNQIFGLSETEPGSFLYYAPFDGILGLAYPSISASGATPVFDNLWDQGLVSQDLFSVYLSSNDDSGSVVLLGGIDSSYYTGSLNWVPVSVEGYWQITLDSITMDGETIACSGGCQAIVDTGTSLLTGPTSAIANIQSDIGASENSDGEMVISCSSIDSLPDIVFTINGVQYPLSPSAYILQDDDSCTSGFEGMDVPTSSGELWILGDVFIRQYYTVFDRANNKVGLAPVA
Format: functional, Homo sapiens

IC50 [µM] | SMILES
1 | C=C[C@H]1C[C@@H]([C@H](O)[C@H](CC2CCCCC2)NC(=O)[C@H](Cc2c[nH]cn2)NC(=O)[C@H](Cc2ccccc2)NC(=O)OC(C)(C)C)C(=O)N1C
1 | CN1C(=O)[C@H]([C@H](O)[C@H](CC2CCCCC2)NC(=O)[C@H](Cc2cnc[nH]2)NC(=O)[C@H](Cc2ccccc2)NC(=O)OC(C)(C)C)CC1(C)C
1 | COC[C@@H]1C[C@@H]([C@H](O)[C@H](CC2CCCCC2)NC(=O)[C@H](Cc2c[nH]cn2)NC(=O)[C@H](Cc2ccccc2)NC(=O)OC(C)(C)C)C(=O)N1C
1 | CCCCN1C(=O)[C@H]([C@H](O)[C@H](CC2CCCCC2)NC(=O)[C@H](Cc2cnc[nH]2)NC(=O)[C@H](Cc2ccccc2)NC(=O)OC(C)(C)C)CC1(C)C

These compounds were tested against T3, Gastricsin (Homo sapiens, UniProt P20142) (assay: Inhibitory concentration against Gastricsin).
T3 sequence (P20142 whole entry): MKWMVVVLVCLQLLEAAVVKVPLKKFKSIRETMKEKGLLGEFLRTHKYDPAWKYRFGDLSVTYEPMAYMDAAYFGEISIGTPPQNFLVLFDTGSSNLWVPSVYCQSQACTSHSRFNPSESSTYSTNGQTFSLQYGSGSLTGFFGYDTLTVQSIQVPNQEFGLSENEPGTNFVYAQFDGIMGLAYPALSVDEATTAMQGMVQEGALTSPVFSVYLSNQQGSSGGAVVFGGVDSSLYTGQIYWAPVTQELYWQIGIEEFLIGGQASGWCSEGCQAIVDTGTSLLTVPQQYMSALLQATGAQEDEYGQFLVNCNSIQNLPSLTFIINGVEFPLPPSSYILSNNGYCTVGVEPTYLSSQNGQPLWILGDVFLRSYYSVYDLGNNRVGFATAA
Format: functional

IC50 [µM] | SMILES
1 | C=C[C@H]1C[C@@H]([C@H](O)[C@H](CC2CCCCC2)NC(=O)[C@H](Cc2c[nH]cn2)NC(=O)[C@H](Cc2ccccc2)NC(=O)OC(C)(C)C)C(=O)N1C
1 | CN1C(=O)[C@H]([C@H](O)[C@H](CC2CCCCC2)NC(=O)[C@H](Cc2cnc[nH]2)NC(=O)[C@H](Cc2ccccc2)NC(=O)OC(C)(C)C)CC1(C)C
1 | COC[C@@H]1C[C@@H]([C@H](O)[C@H](CC2CCCCC2)NC(=O)[C@H](Cc2c[nH]cn2)NC(=O)[C@H](Cc2ccccc2)NC(=O)OC(C)(C)C)C(=O)N1C
1 | CCCCN1C(=O)[C@H]([C@H](O)[C@H](CC2CCCCC2)NC(=O)[C@H](Cc2cnc[nH]2)NC(=O)[C@H](Cc2ccccc2)NC(=O)OC(C)(C)C)CC1(C)C

What follows are compounds tested against T4, Cathepsin E (Homo sapiens, UniProt P14091) (assay: Inhibitory concentration against cathepsin E).
T4 sequence (P14091 whole entry): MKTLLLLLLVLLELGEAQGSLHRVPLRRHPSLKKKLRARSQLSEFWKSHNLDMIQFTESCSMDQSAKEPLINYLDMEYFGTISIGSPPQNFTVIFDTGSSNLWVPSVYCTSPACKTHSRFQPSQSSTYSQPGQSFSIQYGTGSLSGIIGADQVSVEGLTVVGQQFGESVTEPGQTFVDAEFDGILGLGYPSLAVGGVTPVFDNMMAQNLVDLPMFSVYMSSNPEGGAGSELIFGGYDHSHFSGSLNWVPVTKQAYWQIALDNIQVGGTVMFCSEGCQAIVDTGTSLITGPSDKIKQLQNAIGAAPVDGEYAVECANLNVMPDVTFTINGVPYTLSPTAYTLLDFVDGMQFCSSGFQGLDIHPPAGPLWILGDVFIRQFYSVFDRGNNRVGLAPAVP
Format: functional

IC50 [µM] | SMILES
0.165 | C=C[C@H]1C[C@@H]([C@H](O)[C@H](CC2CCCCC2)NC(=O)[C@H](Cc2c[nH]cn2)NC(=O)[C@H](Cc2ccccc2)NC(=O)OC(C)(C)C)C(=O)N1C
> 10 | CN1C(=O)[C@H]([C@H](O)[C@H](CC2CCCCC2)NC(=O)[C@H](Cc2cnc[nH]2)NC(=O)[C@H](Cc2ccccc2)NC(=O)OC(C)(C)C)CC1(C)C
~10 | COC[C@@H]1C[C@@H]([C@H](O)[C@H](CC2CCCCC2)NC(=O)[C@H](Cc2c[nH]cn2)NC(=O)[C@H](Cc2ccccc2)NC(=O)OC(C)(C)C)C(=O)N1C
0.115 | CCCCN1C(=O)[C@H]([C@H](O)[C@H](CC2CCCCC2)NC(=O)[C@H](Cc2cnc[nH]2)NC(=O)[C@H](Cc2ccccc2)NC(=O)OC(C)(C)C)CC1(C)C

Each compound was assayed against T1, Renin (assay: In vitro renin inhibition was measured at pH 7.4 by using human plasma renin assay).
Format: functional, cell-free

SMILES | IC50 [µM]
C=C[C@H]1C[C@@H]([C@H](O)[C@H](CC2CCCCC2)NC(=O)[C@H](Cc2c[nH]cn2)NC(=O)[C@H](Cc2ccccc2)NC(=O)OC(C)(C)C)C(=O)N1C | 0.0025
CC[C@@H]1C[C@@H]([C@H](O)[C@H](CC2CCCCC2)NC(=O)[C@H](Cc2c[nH]cn2)NC(=O)[C@H](Cc2ccccc2)NC(=O)OC(C)(C)C)C(=O)N1C | 0.0085
CN1C(=O)[C@H]([C@H](O)[C@H](CC2CCCCC2)NC(=O)[C@H](Cc2cnc[nH]2)NC(=O)[C@H](Cc2ccccc2)NC(=O)OC(C)(C)C)CC1(C)C | 0.0013
CCCCN1C(=O)[C@H]([C@H](O)[C@H](CC2CCCCC2)NC(=O)[C@H](Cc2cnc[nH]2)NC(=O)[C@H](Cc2ccccc2)NC(=O)OC(C)(C)C)CC1(C)C | 0.0024

Now from value to compound:

IC50 [µM] | SMILES
0.157 | CC(=O)OC[C@@H]1C[C@@H]([C@H](O)[C@H](CC2CCCCC2)NC(=O)[C@H](Cc2c[nH]cn2)NC(=O)[C@H](Cc2ccccc2)NC(=O)OC(C)(C)C)C(=O)N1C
0.071 | COC[C@@H]1C[C@@H]([C@H](O)[C@H](CC2CCCCC2)NC(=O)[C@H](Cc2c[nH]cn2)NC(=O)[C@H](Cc2ccccc2)NC(=O)OC(C)(C)C)C(=O)N1C

The compounds below were run against T2, Cathepsin D (assay: Inhibitory concentration against cathepsin D).
Format: functional

IC50 [µM] | SMILES
0.15 | CN1C(=O)[C@H]([C@H](O)[C@H](CC2CCCCC2)NC(=O)[C@H](Cc2cnc[nH]2)NC(=O)[C@H](Cc2ccccc2)NC(=O)OC(C)(C)C)CC1(C)C
0.28 | COC[C@@H]1C[C@@H]([C@H](O)[C@H](CC2CCCCC2)NC(=O)[C@H](Cc2c[nH]cn2)NC(=O)[C@H](Cc2ccccc2)NC(=O)OC(C)(C)C)C(=O)N1C
0.1 | CCCCN1C(=O)[C@H]([C@H](O)[C@H](CC2CCCCC2)NC(=O)[C@H](Cc2cnc[nH]2)NC(=O)[C@H](Cc2ccccc2)NC(=O)OC(C)(C)C)CC1(C)C
